Data: the NIST ThermoML archive (doi:10.1021/je201116t)
Numbers after ± are expanded uncertainties.

Test: xn = mol fraction of the nth substance listed
Conditions: 101 kPa, Liquid; for viscosity: Capillary tube (Ostwald / Ubbelohde) method

CCC(=O)[O-].CC[NH+]1CCNCC1 [N-ethylpiperazinium propionate] + CCCCO
Conditions	mass density, 298.15 K [kg/m3]	mass density, 303.15 K [kg/m3]	mass density, 308.15 K [kg/m3]	mass density, 313.15 K [kg/m3]	viscosity, 298.15 K [mPa·s]	viscosity, 303.15 K [mPa·s]	viscosity, 308.15 K [mPa·s]	viscosity, 313.15 K [mPa·s]
x2 = 0	1008.36 ± 1.2	1004.38 ± 1.2	1000.33 ± 1.2	996.237 ± 1.2	243.49 ± 7.6	164.81 ± 4.6	113.44 ± 2.7	80.93 ± 1.8
x2 = 0.1025	998.465 ± 1.1	994.495 ± 1.1	990.478 ± 1.1	986.427 ± 1.1	177.49 ± 4.9	122.06 ± 3	84.94 ± 1.8	61.07 ± 1.2
x2 = 0.2018	987.497 ± 0.99	983.536 ± 1	979.527 ± 1	975.484 ± 1	133.79 ± 3.3	91.02 ± 2	63.82 ± 1.2	46.53 ± 0.91
x2 = 0.2999	975.365 ± 0.94	971.427 ± 0.96	967.437 ± 0.97	963.409 ± 0.99	98.72 ± 2.1	67.32 ± 1.4	47.84 ± 0.9	35.22 ± 0.66
x2 = 0.3989	961.397 ± 0.92	957.475 ± 0.93	953.503 ± 0.95	949.491 ± 0.96	73.16 ± 1.4	50.02 ± 0.97	35.72 ± 0.66	26.48 ± 0.48
x2 = 0.5016	944.783 ± 0.91	940.876 ± 0.92	936.907 ± 0.94	932.906 ± 0.96	53.48 ± 0.97	36.42 ± 0.71	26.02 ± 0.47	19.37 ± 0.34
x2 = 0.6004	926.29 ± 0.92	922.385 ± 0.94	918.422 ± 0.96	914.42 ± 0.98	38.82 ± 0.72	26.35 ± 0.51	18.8 ± 0.34	14.05 ± 0.24
x2 = 0.7012	903.96 ± 0.97	900.045 ± 0.99	896.078 ± 1	892.071 ± 1	27.07 ± 0.5	18.12 ± 0.35	12.92 ± 0.23	9.675 ± 0.16
x2 = 0.8008	877.764 ± 1	873.84 ± 1.1	869.866 ± 1.1	865.851 ± 1.1	17.51 ± 0.32	11.84 ± 0.23	8.502 ± 0.15	6.434 ± 0.11
x2 = 0.8995	845.961 ± 1.2	842.05 ± 1.2	838.083 ± 1.2	834.079 ± 1.2	9.611 ± 0.17	6.701 ± 0.12	4.966 ± 0.081	3.87 ± 0.058
